13 compounds from paper PMC10934158, “Constituents of Chimaphila japonica and Their Diuretic Activity” (Molecules, 2024) can be followed below.

Assay type in all cases: cell-based
The test system of one assay is MDCK cells. In words: MTT cytotoxicity assay on MDCK cells. Conditions: 100 µmol/L, 24 h incubation, mean ± SD of three replicates; for inhibition at 100 µM: Canis lupus familiaris, read-out: Growth Inhibition Rate (%). As to the method:
First, we used the MTT method to examine the cytotoxicity of the compounds (1–12) on MDCK cells at a concentration of 100 µmol/L, and the results are shown in Table 5.
Each compound was evaluated for cytotoxicity on DMCK cells using MTT assays. A 96-well plate containing 1 × 10^4 cells per well was seeded with logarithmic growth-phase DMCK cells, which were then cultured for 24 h in a cell culture incubator. After that, the culture medium was changed to one that included medication (100 µmol/L for the treatment groups, 100 µmol/L for the control group, or 100 µmol/L for the positive control group). In total, 100 µL of the appropriate solution was added to each well, and they were then incubated for a further 24 h. After that, culture media were taken out and changed for a DMEM solution that included 20 µL of MTT (5 mg/mL). After incubating for 4 h, the liquid in each well was removed and replaced with 150 µL of DMSO, which was shaken for 10 min to ensure thorough mixing. The absorbance at 490 nm was measured to determine the optical density (OD) of each well. The cell growth inhibition rate was calculated as follows: cell growth inhibition rate (%) = (ODBlank − ODExperimental)/ODBlank × 100%.
On the technique in general: Tetrazolium dyes change colour on reduction, which living cells bring about.

In assay [1] the test system is Na^+ transport in MDCK cells. Kind of assay: In vitro diuretic activity assay: Na+ transport across MDCK cells in Transwell chamber. Conditions: for inhibition at 100 µM: Canis lupus familiaris; for inhibition at 100 µM / Transport Inhibition Rate (%) Na^+: compounds 100 µmol/L, hydrochlorothiazide 200 µmol/L, mean ± SD of three replicates; for Diuretic activity (overall, in words): in vitro Na^+ and Cl^− transport bioassays. As to the method: (§1) Generally, the transport of Na^+ and Cl^− plays an essential role in glomerular filtration and tubular reabsorption.
(§2) Log-phase MDCK cells were seeded in the upper chambers of Transwell plates (4 × 10^4 cells/well), and 800 µL of complete culture medium was added to the lower chambers. After 24 h of incubation at 37 ℃, the electrical resistance of the upper chamber cells was measured one by one (R = (Rcell − Rblank) × 0.04π). When the electrical resistance of the upper chamber cells reached ≥ 300 Ω cm^2, the upper chamber medium was removed and replaced with the drug solution. The blank group (given normal saline), experimental group (1, 4–12, 100 µmol/L), and hydrochlorothiazide group (200 µmol/L) were set, and each well was treated with 200 µL of the corresponding solution. The cells were then further incubated for 24 h. After that, the upper and lower chamber fluids were removed, and 200 µL of NaCl solution (21 mg/mL) was added to the upper chamber, while 800 µL of DMEM was added to the lower chamber for continued incubation. At 1, 2, and 3 h, 50 µL of the lower chamber fluid was taken, and the OD values were measured using Na^+ and Cl^− detection kits. The transport inhibition rate (%) was calculated as follows: transport inhibition rate (%) = (ODblank − ODexperimental)/ODblank × 100%.

Assay [2] relates to Cl^− transport in MDCK cells. Kind of assay: In vitro diuretic activity assay: Cl− transport across MDCK cells in Transwell chamber. To be noted: for inhibition at 100 µM: Canis lupus familiaris, read-out: Transport Inhibition Rate (%) Cl^−; for Inhibitory activity on Cl^− transport compared to blank group (in words): 100 µmol/L, significance vs blank group. Here is the method: as §1, §2

The mark [3] stands for this setting: MDCK Transwell, read-out: Transport Inhibition Rate (%) Na^+.
Setting [4] is: MDCK Transwell, compounds 100 µmol/L, hydrochlorothiazide 200 µmol/L, mean ± SD of three replicates.
The mark [5] stands for this setting: MDCK, read-out: Transport Inhibition Rate (%) Na^+, MDCK Transwell.

Where “and” joins values, the source holds several entries; their conditions need not be identical. Equal values may be shown once. Read-outs that look alike come from different tables or passages of the source. Marks after values point to notes of the source that are not given here.

As a reminder, the inhibition is the change of the read-out against control, counted positive when it falls. Turning to `Cc1cc(O)ccc1O[C@H]1O[C@@H](CO)[C@H](O)[C@@H](O[C@H]2O[C@@H](CO)[C@H](O)[C@@H](O)[C@@H]2O)[C@@H]1O` [Compound 1, 3′-O-β-D-glucopyranosyl-isohomoarbutin], the results for the inhibition at 100 µM (in the assay with MDCK cells; in assay [1] (setting [3]); in assay [2] (setting [4])) were 4.89 ± 0.05%, -11.7 ± 1.14% and 9.44 ± 0.78%, respectively.
For `Cc1cc(O)ccc1O[C@H]1O[C@@H](CO)[C@H](O[C@H]2O[C@@H](CO)[C@H](O)[C@@H](O)[C@@H]2O)[C@@H](O)[C@@H]1O` [Compound 2, 4′-O-β-D-glucopyranosyl-isohomoarbutin], the inhibition at 100 µM in the assay on MDCK cells was 29.48 ± 0.12%.
The same measure, in the same setting: the same measure for `Cc1cc(O)c(-c2cc(O[C@@H]3O[C@H](CO)[C@@H](O)[C@H](O)[C@H]3O)c(C)cc2O)cc1O[C@@H]1O[C@H](CO)[C@@H](O)[C@H](O)[C@H]1O` [Compound 3, 5-5′-dehydro-di (2-methyl-4-hydroxy-phenyl-1-O-β-D-glucopyranoside)]: 23.31 ± 0.13%.
As for `C/C(=C\Cc1c(O)ccc(O[C@H]2O[C@@H](CO)[C@H](O)[C@@H](O)[C@@H]2O)c1C)CO` [Compound 5, 3-[(E)-4-hydroxy-3-methyl-2-butenyl]-4-hydroxy-2-methylphenyl-O-β-D-glucopyranoside], the inhibition at 100 µM with MDCK cells came out at 4.08 ± 0.03%; in assay [1] (setting [3]) it was 7.61 ± 0.71%; in assay [2] (setting [4]), 4.57 ± 0.65%. In assay [2], the “Inhibitory activity on Cl^− transport compared to blank group (in words)” value was “good inhibitory activity”.
Consider `Cc1cc(O)ccc1O[C@@H]1O[C@H](CO)[C@@H](O)[C@H](O)[C@H]1O` [Compound 6, isohomoarbutin], for which the inhibition at 100 µM is under 0% in the assay with MDCK cells, 10.2 ± 1.24% in assay [1] (setting [3]) and 12.2 ± 1.33% in assay [2] (setting [4]).
With `O=c1c(O)c(-c2ccc(O)c(O)c2)oc2cc(O)cc(O)c12` [Compound 7, quercetin], the inhibition at 100 µM was under 0% with MDCK cells, over 20% in assay [1] (setting [5]) and 20.7 ± 0.74% in assay [2] (MDCK). Also, the “Na^+ transport inhibition rate at 1 h” value in assay [1] (Figure 3) is listed as “more than 30.24%”. For the same compound, in assay [1] (MDCK Transwell), the “Transport Inhibition Rate (%) Na^+” value was 35.95 ± 1.42 ^e %. The “Diuretic activity (overall, in words)” value in assay [1] is given as “potent diuretic activity”. The “Cl^− transport inhibition rate at peak, second hour” value in assay [2] (second hour (peak), Figure 4) is “higher than 20%”.
Turning to `C[C@@H]1O[C@@H](Oc2c(-c3ccc(O)c(O)c3)oc3cc(O)cc(O)c3c2=O)[C@H](O)[C@H](O)[C@H]1O` [Compound 8, quercitrin], the inhibition at 100 µM was under 0% with MDCK cells, 18.5 ± 1.02% in assay [1] (setting [5]) and 0.65 ± 1.45% in assay [2] (MDCK).
The like results for `O=c1c(O[C@@H]2O[C@H](CO)[C@@H](O)[C@H](O)[C@H]2O)c(-c2ccc(O)c(O)c2)oc2cc(O)cc(O)c12` [Compound 9, isoquercitrin] were, in that order, under 0%, 6.22 ± 0.53% and -8.36 ± 2.6%.
In the case of `O=c1c(O[C@@H]2O[C@H](CO)[C@H](O)[C@H](O)[C@H]2O)c(-c2ccc(O)c(O)c2)oc2cc(O)cc(O)c12` [Compound 10, hyperoside], the inhibition at 100 µM was under 0% with MDCK cells, 1.82 ± 0.81% in assay [1] (setting [5]) and -13.2 ± 1.89% in assay [2] (MDCK).
`O=c1c(O)c(-c2ccc(O)cc2)oc2cc(O)cc(O)c12` [Compound 11, kaempferol]: the inhibition at 100 µM in the assay on MDCK cells was under 0%; in assay [1] (setting [5]), over 20%; in assay [2] (MDCK), 27.7 ± 1.18%. In addition, the “Na^+ transport suppression rate at 3 h compared with hydrochlorothiazide (in words)” value in assay [1] (3 h, Figure 3) is reported as “exceeds that of hydrochlorothiazide”. In assay [1] (MDCK Transwell), the “Transport Inhibition Rate (%) Na^+” value was 28.81± 1.04 ^e %. The “Diuretic activity (overall, in words)” value in assay [1] was “potent diuretic activity”.
Turning to `O=c1c(O[C@@H]2O[C@@H](CO)[C@H](O)[C@H]2O)c(-c2ccc(O)cc2)oc2cc(O)cc(O)c12` [Compound 12, juglanin], the inhibition at 100 µM is under 0% with MDCK cells, 14.2 ± 0.69% in assay [1] (setting [5]) and 3.27 ± 0.31% in assay [2] (MDCK). Moreover, the “Inhibitory activity on Cl^− transport compared to blank group (in words)” value in assay [2] is “general inhibitory activity”.
As to `NS(=O)(=O)c1cc2c(cc1Cl)NCNS2(=O)=O` [Hyd, hydrochlorothiazide, reference compound], in the assay on MDCK cells, the inhibition at 100 µM is under 0%. For the same compound, the “Na^+ transport inhibition rate at 1 h” value in assay [1] (Figure 3) is reported as 27.91%. Moreover, in assay [1] (MDCK Transwell), the “Transport Inhibition Rate (%) Na^+” value is 39.74 ± 0.64 ^e %. Also, the “Transport Inhibition Rate (%) Cl^−” value in assay [2] (setting [4]) is recorded as 23.42 ± 0.87 ^e %.
With “(1R,3R,4R)-3-methylcyclohexanol β-D-glucopyranoside [Compound 4]”, the “Growth Inhibition Rate (%)” value in the assay on MDCK cells amounted to 4.89 ± 0.05%. Also, the “Transport Inhibition Rate (%) Na^+” value in assay [1] (MDCK Transwell) was “higher than 20% and 21.13 ± 0.89 ^e %”. The “Diuretic activity (overall, in words)” value in assay [1] is listed as “potent diuretic activity”. The “Transport Inhibition Rate (%) Cl^−” value in assay [2] (setting [4]) is recorded as 12.23 ± 0.18 ^e %.
